Laboratory results taken from US8268821B2, “Methods and compositions” (priority 2003, dated 2012).
Marks after values point to notes of the source that are not given here.

Test system: cancer-related neuropathic pain
Assay: Open label dose escalation study of flupirtine, case studies JE and RM
Conditions: for SCORE WALKING / SCORE ENJOYMENT / SCORE TOTAL ACTIVITY / SCORE MOOD / SCORE RELATIONSHIPS / SCORE SLEEP / SCORE GENERAL ACTIVITY: pain interference 1-10; for SCORE WALKING: day 1 baseline 7; for SCORE ENJOYMENT / SCORE TOTAL ACTIVITY / AVERAGE PAIN LAST 24 HOURS: day 1 baseline 8; for SCORE NAUSEA / SCORE UN[…] GAIT: day 1 baseline 2; for SCORE POOR CONCENTRATION / WHO PERFORMANCE STATUS / SCORE SLEEP: day 1 baseline 3; for SCORE DROWSINESS / SCORE POOR APPETITE: day 1 baseline 4; for WORST PAIN SCORE LAST 24 HOURS: day 1 baseline 10; for neuropathic dwascriminant function score: >0 = neuropathic, day 1 baseline 2.448; for freezing pain score / score for increased pain due to touch / score for increased pain due to weather changes / squeezing pain score: day 1 baseline 0; for burning pain score: day 1 baseline 90; for electric pain score / for shooting pain score / numbness score / score for overly sensitive to touch / tingling pain score / unpleasant pain score: day 1 baseline 95; for overwhelming pain score: day 1 baseline 98; for SCORE GENERAL ACTIVITY: day 1 baseline 5
[1] = JE day 5, flupirtine 100 mg qid
[2] = JE day 5, flupirtine 100 mg qid, scale 1-4, day 1 baseline 1
[3] = JE day 5, flupirtine 100 mg qid, scale 1-4
[4] = JE day 5, flupirtine 100 mg qid, scale to 10, day 1 baseline 1
[5] = JE day 5, flupirtine 100 mg qid, scale to 10
[6] = JE day 6, flupirtine 100 mg qid
[7] = JE day 6, flupirtine 100 mg qid, day 1 baseline 1
[8] = JE day 6, flupirtine 100 mg qid, scale 1-4, day 1 baseline 1
[9] = JE day 6, flupirtine 100 mg qid, scale 1-4
[10] = JE day 6, flupirtine 100 mg qid, scale to 10, day 1 baseline 1
[11] = JE day 6, flupirtine 100 mg qid, scale to 10
[12] = JE day 7, flupirtine 100 mg qid
[13] = JE day 7, flupirtine 100 mg qid, day 1 baseline 1
[14] = JE day 7, flupirtine 100 mg qid, scale 1-4, day 1 baseline 1
[15] = JE day 7, flupirtine 100 mg qid, scale 1-4
[16] = JE day 7, flupirtine 100 mg qid, scale to 10, day 1 baseline 1
[17] = JE day 7, flupirtine 100 mg qid, scale to 10
[18] = JE day 8, flupirtine 100 mg qid
[19] = JE day 8, flupirtine 100 mg qid, day 1 baseline 1
[20] = JE day 8, flupirtine 100 mg qid, scale 1-4
[21] = JE day 8, flupirtine 100 mg qid, scale 1-4, day 1 baseline 1
[22] = JE, day after day 8 (discharge), flupirtine 100 mg QID with Oxycontin 40 mg/24 hrs, scale to 10

## CCOC(=O)Nc1ccc(NCc2ccc(F)cc2)nc1N [flupirtine]
[1]
  SCORE WALKING: 1
  SCORE ENJOYMENT: 3
  SCORE TOTAL ACTIVITY: 1
[2]
  SCORE CONSTIPATION: 4
  SCORE INDIGESTION: 1
[3]
  SCORE NAUSEA: 1
  SCORE UN[…] GAIT: 4
  SCORE POOR CONCENTRATION: 4
  SCORE DROWSINESS: 4
  SCORE POOR APPETITE: 4
[4]
  LEAST PAIN LAST 24 HRS: 0
  PAIN SCORE RIGHT NOW: 0
[5]
  AVERAGE PAIN LAST 24 HOURS: 0
  WORST PAIN SCORE LAST 24 HOURS: 6
JE day 6, flupirtine 100 mg qid, 0=fully active, 4=completely disabled
  WHO PERFORMANCE STATUS: 3
[6]
  neuropathic dwascriminant function score: −1.048
  freezing pain score: 0
  score for increased pain due to touch: 80
  score for increased pain due to weather changes: 0
  squeezing pain score: 0
  burning pain score: 0
  electric pain score: 0
  for shooting pain score: 0
  numbness score: 0
  score for overly sensitive to touch: 0
  tingling pain score: 0
  unpleasant pain score: 0
  overwhelming pain score: 40
  SCORE SLEEP: 1
  SCORE GENERAL ACTIVITY: 1
  SCORE WALKING: 1
  SCORE ENJOYMENT: 1
  SCORE TOTAL ACTIVITY: 1
[7]
  SCORE MOOD: 1
  SCORE RELATIONSHIPS: 1
[8]
  SCORE CONSTIPATION: 1
  SCORE INDIGESTION: 1
[9]
  SCORE NAUSEA: 1
  SCORE UN[…] GAIT: 3
  SCORE POOR CONCENTRATION: 2
  SCORE DROWSINESS: 3
  SCORE POOR APPETITE: 2
[10]
  LEAST PAIN LAST 24 HRS: 0
  PAIN SCORE RIGHT NOW: 8
[11]
  AVERAGE PAIN LAST 24 HOURS: 8
  WORST PAIN SCORE LAST 24 HOURS: 9
JE day 7, flupirtine 100 mg qid, 0=fully active, 4=completely disabled
  WHO PERFORMANCE STATUS: 3
[12]
  neuropathic dwascriminant function score: −1.408
  freezing pain score: 0
  score for increased pain due to touch: 0
  score for increased pain due to weather changes: 0
  squeezing pain score: 0
  burning pain score: 0
  electric pain score: 0
  for shooting pain score: 0
  numbness score: 0
  score for overly sensitive to touch: 0
  tingling pain score: 0
  unpleasant pain score: 0
  overwhelming pain score: 0
  SCORE SLEEP: 1
  SCORE GENERAL ACTIVITY: 1
  SCORE WALKING: 1
  SCORE ENJOYMENT: 1
  SCORE TOTAL ACTIVITY: 1
[13]
  SCORE MOOD: 1
  SCORE RELATIONSHIPS: 1
[14]
  SCORE CONSTIPATION: 1
  SCORE INDIGESTION: 1
[15]
  SCORE NAUSEA: 1
  SCORE UN[…] GAIT: 2
  SCORE POOR CONCENTRATION: 1
  SCORE DROWSINESS: 3
  SCORE POOR APPETITE: 3
[16]
  LEAST PAIN LAST 24 HRS: 0
  PAIN SCORE RIGHT NOW: 0
[17]
  AVERAGE PAIN LAST 24 HOURS: 0
  WORST PAIN SCORE LAST 24 HOURS: 4
JE day 8, flupirtine 100 mg qid, 0=fully active, 4=completely disabled
  WHO PERFORMANCE STATUS: 3
[18]
  freezing pain score: 0
  score for increased pain due to touch: 0
  score for increased pain due to weather changes: 0
  squeezing pain score: 0
  burning pain score: 0
  electric pain score: 0
  for shooting pain score: 0
  numbness score: 90
  score for overly sensitive to touch: 0
  tingling pain score: 0
  unpleasant pain score: 95
  overwhelming pain score: 95
  SCORE SLEEP: 10
  SCORE GENERAL ACTIVITY: 1*
  SCORE WALKING: 1*
  SCORE ENJOYMENT: 8
  SCORE TOTAL ACTIVITY: 1*
[19]
  SCORE MOOD: 8
  SCORE RELATIONSHIPS: 1
[20]
  other symptoms hallucinations: 1-
  SCORE NAUSEA: 1*
  SCORE POOR CONCENTRATION: 1*
  SCORE DROWSINESS: 1*
  SCORE POOR APPETITE: 1*
[21]
  SCORE CONSTIPATION: 1*
  SCORE INDIGESTION: 1
  other symptom twitch: 1-
JE day 8, flupirtine 100 mg qid, scale to 10, day 1 baseline 1
  PAIN SCORE RIGHT NOW: 9
JE day 8, flupirtine 100 mg qid, scale to 10
  AVERAGE PAIN LAST 24 HOURS: 7
JE, day after day 8 (discharge), flupirtine 100 mg QID with Oxycontin 40 mg/24 hrs, 0=fully active, 4=completely disabled
  WHO performance status score: 2
[22]
  average pain score for the previous 24 hours: 0
  least pain: 0
  worst pain: 0
RM day 2, flupirtine 100 mg qid, 0=fully active, 4=completely disabled
  WHO PERFORMANCE STATUS: 3
